From US7915282B2, “C2-phenyl-substituted cyclic keto-enols used as pesticides and herbicides” (Bayer Aktiengesellschaft, priority 2000, dated 2011)

Assays:
Format in all cases: in vivo
[1] = tested on: peach aphids (Myzus persicae); assay: Myzus test; conditions: active compound concentration of 1000 ppm; after 6 days; infested cabbage leaves dipped
Method: [table] To produce a suitable preparation of active compound, 1 part by weight of active compound is mixed with the stated amounts of solvent and emulsifier, and the concentrate is diluted with emulsifier-containing water to the desired concentration. Cabbage leaves (Brassica oleracea) which are heavily infested by the peach aphids (Myzus persicae) are treated by being dipped into the preparation of active compound of the desired concentration. After the desired period of time, the kill in % is determined. 100% means that all aphids have been killed; 0% means that none of the aphids have been killed.

white fly Bemisia tabaci = assay: Bemisia test; conditions: active compound concentration of 1000 ppm; after 10 days; infested cotton plants dipped
Method: [table] To produce a suitable preparation of active compound, 1 part by weight of active compound is mixed with the stated amounts of solvent and emulsifier, and the concentrate is diluted with emulsifier-containing water to the desired concentrations. Cotton plants (Gossypium hirsutum) which are infested by eggs, larvae and pupae of the white fly Bemisia tabaci are dipped into a preparation of active compound of the desired concentration. After the desired period of time, the kill in % is determined. 100% means that all animals have been killed; 0% means that none of the animals have been killed.

[2] = tested on: green rice leaf hopper (Nephotettix cincticeps); assay: Nephotettix test; conditions: active compound concentration of 1000 ppm; after 6 days; rice seedlings dipped
Method: [table] To produce a suitable preparation of active compound, 1 part by weight of active compound is mixed with the stated amounts of solvent and emulsifier, and the concentrate is diluted with emulsifier-containing, water to the desired concentration. Rice seedlings (Oryza sativa) are treated by being dipped into the preparation of active compound of the desired concentrated and are populated with the green rice leaf hopper (Nephotettix cincticeps) while the leaves are still moist. After the desired period of time, the kill in % is determined. 100% means that all leaf hoppers have been killed; 0% means that none of the leaf hoppers have been killed.

Wheat = assay: Post-emergence test; conditions: after three weeks
Method: (§1) [table] To produce a suitable preparation of active compound, 1 part by weight of active compound is mixed with the stated amount of solvent, the stated amount of emulsifier is added and the concentrate is diluted with water to the desired concentration. Test plants of a height of 5-15 cm are sprayed with the preparation of active compound such that the particular amounts of active compound desired are applied per unit area. The concentration of the spray liquor is chosen such that the particular amount of active compound desired is applied in 1000 l of water/ha. After three weeks, the degree of damage to the plants is rated in % damage in comparison to the development of the untreated control. The figures denote: [table]

Cotton = assay: Post-emergence test; conditions: after three weeks
Method: as §1

Soya bean [3] = assay: Post-emergence test; conditions: 125 g ai/ha, after three weeks
Method: as §1

Digitaria [4] = assay: Post-emergence test; conditions: 125 g ai/ha, after three weeks
Method: as §1

Lolium [5] = assay: Post-emergence test; conditions: after three weeks
Method: as §1

Setaria [6] = assay: Post-emergence test; conditions: 125 g ai/ha, after three weeks
Method: as §1

[7] = tested on: larvae of the mustard beetle (Phaedon cochleariae); assay: Phaedon larvae test; conditions: active compound concentration of 1000 ppm; after 7 days; cabbage leaves dipped
Method: [table] To produce a suitable preparation of active compound, 1 part by weight of active compound is mixed with the stated amounts of solvent and emulsifier, and the concentrate is diluted with emulsifier-containing water to the desired concentration. Cabbage leaves (Brassica oleracea) are treated by being dipped into the preparation of active compound of the desired concentration and are populated with larvae of the mustard beetle (Phaedon cochleariae) while the leaves are still moist. After the desired period of time, the kill in % is determined. 100% means that all beetle larvae have been killed; 0% means that none of the beetle larvae have been killed.

Galium = assay: Post-emergence test; conditions: 125 g ai/ha, after three weeks
Method: as §1

[8] = tested on: greenhouse red spider mite (Tetranychus urticae); assay: Tetranychus test (OP-resistant/dip treatment); conditions: active compound concentration of 1000 ppm; after 7 days; infested bean plants dipped
Method: [table] To produce a suitable preparation of active compound, 1 part by weight of active compound is mixed with the stated amounts of solvent and emulsifier, and the concentrate is diluted with emulsifier-containing water to the desired concentration. Bean plants (Phaseolus vulgaris) which are heavily infested by all stages of the greenhouse red spider mite (Tetranychus urticae) are dipped into a preparation of active compound of the desired concentration. After the desired period of time, the effect in % is determined. 100% means that all spider mites have been killed; 0% means that none of the spider mites have been killed.

Echinochloa = assay: Pre-emergence test; conditions: after three weeks
Method: (§2) [table] To produce a suitable preparation of active compound, 1 part by weight of active compound is mixed with the stated amount of solvent, the stated amount emulsifier is added and the concentrate is diluted with water to the desired concentration. Seeds of the test plants are sown in normal soil. After about 24 hours, the soil is sprayed with the preparation of active compound such that the particular amounts of active compound desired are applied per unit area. The concentration of the spray liquor is chosen such that the particular amounts of active compound desired are applied in 1000 l of water/ha. After three weeks, the degree of damage to the plants is rated in % damage in comparison to the development of the untreated controls. The figures denote: [table]

Digitaria [9] = assay: Pre-emergence test; conditions: 125 g ai/ha, after three weeks
Method: as §2

Alopecurus [10] = assay: Pre-emergence test; conditions: after three weeks
Method: as §2

Lolium [11] = assay: Pre-emergence test; conditions: 125 g ai/ha, after three weeks
Method: as §2

Setaria [12] = assay: Pre-emergence test; conditions: 125 g ai/ha, after three weeks
Method: as §2

Avena fatua [13] = assay: Pre-emergence test; conditions: after three weeks
Method: as §2

Sorghum = assay: Post-emergence test; conditions: after three weeks
Method: as §1

Alopecurus [14] = assay: Post-emergence test; conditions: 60 g ai/ha, after three weeks
Method: as §1

Avena fatua [15] = assay: Post-emergence test; conditions: 60 g ai/ha, after three weeks
Method: as §1

Sugar beet = assay: Pre-emergence test; conditions: 125 g ai/ha, after three weeks
Method: as §2

Soya bean [16] = assay: Pre-emergence test; conditions: 125 g ai/ha, after three weeks
Method: as §2

Maize = assay: Pre-emergence test; conditions: 125 g ai/ha, after three weeks
Method: as §2

Bromus = assay: Pre-emergence test; conditions: 125 g ai/ha, after three weeks
Method: as §2

Compound C=Cc1cc(C)c(C2=C(OC(=O)C(C)(C)C)C3(CCC(OC)CC3)OC2=O)c(C)c1 (centres unmarked) [Example I-2-b-5] has a kill in % [1] of 100%.
Compound CCc1cc(C)cc(C)c1C1=C(OC(=O)C(C)(C)C)C2(CCCCC2)OC1=O [Example I-2-b-9] has a kill in % (white fly Bemisia tabaci) of 100% and a kill in % [2] of 100%.
In the case of C=Cc1cc(C)c(C)cc1C1=C(OC(=O)C(C)C)C2(CCC(OC)CC2)OC1=O (centres unmarked) [Example I-2-b-13], the “% damage Wheat” value (Wheat; 125 g ai/ha) is reported as 10%, the “% damage Cotton” value (Cotton; 125 g ai/ha) is reported as 0% and the “% damage Soya bean” value (Soya bean [3]) is reported as 0%. For the same compound, the “% damage Digitaria” value (Digitaria [4]) was 80%, the “% damage Lolium” value (Lolium [5]; 125 g ai/ha) was 70% and the “% damage Setaria” value (Setaria [6]) was 95%.
In the case of CCc1cc(C)c(C2=C(O)C3(CCC(OC)CC3)NC2=O)c(CC)c1 (centres unmarked) [Example I-1-a-3], the kill in % [7] is reported as 100%, the “% damage Digitaria” value (Digitaria [4]) is reported as 80% and the “% damage Lolium” value (Lolium [5]; 125 g ai/ha) is reported as 70%. For the same compound, the “% damage Setaria” value (Setaria [6]) was 90%, the “% damage Galium” value (Galium) was 80% and the kill in % [2] was 100%. For the same compound, the kill in % [8] was 100%, the “% damage Echinochloa” value (Echinochloa; 125 g ai/ha) was 100% and the “% damage Digitaria” value (Digitaria [9]) was 100%. The “% damage Alopecurus” value (Alopecurus [10]; 125 g ai/ha) was 100%, the “% damage Lolium” value (Lolium [11]) was 100% and the “% damage Setaria” value (Setaria [12]) was 100%. The “% damage Avena fatua” value (Avena fatua [13]; 125 g ai/ha) was 95%.
In the case of C=Cc1cc(C)c(C2=C(OC(=O)C(C)CC)C3(CCC(OC)CC3)OC2=O)cc1C (centres unmarked) [Example I-2-b-12], the “% damage Cotton” value (Cotton; 125 g ai/ha) is reported as 0%, the “% damage Soya bean” value (Soya bean [3]) is reported as 0% and the “% damage Digitaria” value (Digitaria [4]) is reported as 95%. The “% damage Lolium” value (Lolium [5]; 125 g ai/ha) was 90% and the “% damage Setaria” value (Setaria [6]) was 95%.
In the case of CCc1cc(C)cc(C)c1C1=C(O)C2(CCC(OC)CC2)OC1=O (centres unmarked) [Example I-2-a-4], the kill in % [1] is reported as 100%, the kill in % (white fly Bemisia tabaci) is reported as 100% and the “% damage Sorghum” value (Sorghum; 60 g ai/ha) is reported as 80%. The “% damage Wheat” value (Wheat; 60 g ai/ha) was 0%, the “% damage Cotton” value (Cotton; 60 g ai/ha) was 0% and the “% damage Alopecurus” value (Alopecurus [14]) was 95%. The “% damage Lolium” value (Lolium [5]; 60 g ai/ha) was 95%, the “% damage Avena fatua” value (Avena fatua [15]) was 80% and the kill in % [2] was 100%. The kill in % [8] was 100%, the “% damage Sugar beet” value (Sugar beet) was 0% and the “% damage Soya bean” value (Soya bean [16]) was 0%. For the same compound, the “% damage Maize” value (Maize) was 5%, the “% damage Bromus” value (Bromus) was 70% and the “% damage Alopecurus” value (Alopecurus [10]; 125 g ai/ha) was 100%. The “% damage Lolium” value (Lolium [11]) was 100%, the “% damage Setaria” value (Setaria [12]) was 100% and the “% damage Avena fatua” value (Avena fatua [13]; 125 g ai/ha) was 80%.
With CCc1cc(CC)c(C2=C(O)C3(CCC(OC)CC3)NC2=O)c(CC)c1 (centres unmarked) [Example I-1-a-6] the kill in % [1] was 100%, the “% damage Sorghum” value (Sorghum; 125 g ai/ha) was 100% and the “% damage Digitaria” value (Digitaria [4]) was 95%. For the same compound, the “% damage Lolium” value (Lolium [5]; 125 g ai/ha) was 80%, the “% damage Setaria” value (Setaria [6]) was 95% and the “% damage Echinochloa” value (Echinochloa; 60 g ai/ha) was 90%. The “% damage Alopecurus” value (Alopecurus [10]; 60 g ai/ha) was 90% and the “% damage Avena fatua” value (Avena fatua [13]; 60 g ai/ha) was 80%.
